Source: ChEMBL document CHEMBL5576091, “2'-β-Methylselenyl nucleos(t)ide analogs as reverse transcriptase inhibitors against diverse HIV mutants” (Bioorg Med Chem, 2024)
Activity calls are given as the source filed them. The rule behind the calls is not given here.

Tests used:
[1] = tested on: Human immunodeficiency virus 1; experiment: Antiviral activity against multidrug resistant HIV-1 harboring RT M41L/T69SSG/T215Y mutant infected in human TZM-bl cells incubated for 48 hrs by steady glo reagent based […] luminometer analysis; type: functional, organism-based; conditions: Human immunodeficiency virus 1, TZM-bl
[2] = tested on: Human immunodeficiency virus 1; experiment: Antiviral activity against azidothymidine resistant HIV-1 harboring RT M41L/T215Y mutant infected in human TZM-bl cells incubated for 48 hrs by steady glo reagent based […] luminometer analysis; type: functional, organism-based; conditions: Human immunodeficiency virus 1, TZM-bl
[3] = Cytotoxicity against human MT4 cells assessed as reduction in cell viability incubated for 5 days by MTT assay; type: toxicity, cell-based; conditions: time 5 day
[4] = tested on: Human immunodeficiency virus 1; experiment: Antiviral activity against wild type HIV-1 infected in human TZM-bl cells incubated for 48 hrs by steady glo reagent based […] luminometer analysis; type: functional, organism-based; conditions: Human immunodeficiency virus 1, TZM-bl
[5] = Cytotoxicity against human TZM-bl cells assessed as reduction in cell viability incubated for 48 hrs by MTT assay; type: toxicity, cell-based
[6] = tested on: Human immunodeficiency virus 1; experiment: Antiviral activity against lamivudine resistant HIV-1 harboring RT M184V mutant infected in human TZM-bl cells incubated for 48 hrs by steady glo reagent based […] luminometer analysis; type: functional, organism-based; conditions: Human immunodeficiency virus 1, TZM-bl
[7] = target: Human immunodeficiency virus type 1 reverse transcriptase (Human immunodeficiency virus 1) (UniProt Q72547); experiment: Substrate activity at HIV-1 reverse transcriptase assessed as increase in multiple base elongation product at 100 uM in presence of FAM labeled 13-mer primer DNA, 20-mer template RNA, dNTPs by fluorescence based primer extension assay; conditions: time 0-60 min, TDE = time-dependent effect
[8] = target: Human immunodeficiency virus type 1 reverse transcriptase (Human immunodeficiency virus 1) (UniProt Q72547); experiment: (§1) Substrate activity at HIV-1 reverse transcriptase assessed as formation of single elongation product at 400 uM in presence of 3.6 ng/uL enzyme, FAM labeled 13-mer primer DNA, 20-mer template RNA, dNTPs by fluorescence based primer extension assay; conditions: time 0-60 min, TDE = time-dependent effect
[9] = target: Human immunodeficiency virus type 1 reverse transcriptase (Human immunodeficiency virus 1) (UniProt Q72547); experiment: as §1, with “product by measuring elongation efficiency” for “product”, “uM incubated for 60 mins” for “uM”, “14.4” for “3.6”, “assay relative to control” for “assay”
[10] = target: Human immunodeficiency virus type 1 reverse transcriptase (Human immunodeficiency virus 1) (UniProt Q72547); experiment: Substrate activity at HIV-1 reverse transcriptase assessed as formation of multiple elongation products at 50 to 400 uM incubated for 60 mins in presence of 14.4 ng/uL enzyme, FAM labeled primer DNA, template RNA, dNTPs by fluorescence based primer extension assay; conditions: dose 50-400 µM
[11] = target: Human immunodeficiency virus type 1 reverse transcriptase (Human immunodeficiency virus 1) (UniProt Q72547); experiment: as §1, with “product by measuring elongation efficiency” for “product”, “uM incubated for 60 mins” for “uM”, “assay relative to control” for “assay”
[12] = target: Human immunodeficiency virus type 1 reverse transcriptase (Human immunodeficiency virus 1) (UniProt Q72547); experiment: Substrate activity at HIV-1 reverse transcriptase assessed as formation of single elongation product at 50 to 400 uM incubated for 60 mins in presence of 14.4 ng/uL enzyme, FAM labeled primer DNA, template RNA, dNTPs by fluorescence based primer extension assay; conditions: dose 50-400 µM
[13] = target: Human immunodeficiency virus type 1 reverse transcriptase (Human immunodeficiency virus 1) (UniProt Q72547); experiment: Substrate activity at HIV-1 reverse transcriptase assessed as formation of single elongation product by measuring elongation efficiency at 400 uM incubated for 5 mins in presence of 14.4 ng/uL enzyme, FAM labeled 13-mer primer DNA, 20-mer template RNA, dNTPs by fluorescence based primer extension assay relative to control
[14] = target: Human immunodeficiency virus type 1 reverse transcriptase (Human immunodeficiency virus 1) (UniProt Q72547); experiment: Substrate activity at HIV-1 reverse transcriptase assessed as 15-mer product formation incubated for 60 mins in presence of 14.4 ng/uL enzyme, FAM labeled primer DNA, template RNA, dNTPs by fluorescence based primer extension assay; conditions: dose 50-400 µM
[15] = target: Human immunodeficiency virus type 1 reverse transcriptase (Human immunodeficiency virus 1) (UniProt Q72547); experiment: (§2) Substrate activity at HIV-1 reverse transcriptase assessed as formation of single elongation product at 100 uM incubated for 60 mins in presence of FAM labeled 13-mer primer DNA, 20-mer template RNA, dNTPs by fluorescence based primer extension assay
Homo sapiens [16] = species on record: Homo sapiens; experiment: Substrate activity at Phi29 DNA polymerase (unknown origin) assessed as incorporation into DNA incubated for 60 mins in presence of FAM labeled primer DNA, template DNA, dNTPs by fluorescence based primer extension assay
[17] = target: Human immunodeficiency virus type 1 reverse transcriptase (Human immunodeficiency virus 1) (UniProt Q72547); experiment: as §2, with “product by measuring elongation efficiency” for “product”, “assay relative to control” for “assay”
[18] = tested on: Avian myeloblastosis virus; experiment: Substrate activity at Avian myeloblastosis virus reverse transcriptase assessed as incorporation into DNA incubated for 60 mins in presence of FAM labeled primer DNA, template DNA, dNTPs by fluorescence based primer extension assay
[19] = target: Human immunodeficiency virus type 1 reverse transcriptase (Human immunodeficiency virus 1) (UniProt Q72547); experiment: Substrate activity at HIV-1 reverse transcriptase assessed as mismatch elongation mediated 19-mer product formation at 50 to 400 uM incubated for 60 mins in presence of 14.4 ng/uL enzyme, FAM labeled primer DNA, template RNA, dNTPs by fluorescence based primer extension assay; conditions: dose 50-400 µM
Homo sapiens [20] = species on record: Homo sapiens; experiment: Substrate activity at Taq DNA polymerase (unknown origin) assessed as incorporation into DNA incubated for 60 mins in presence of FAM labeled primer DNA, template DNA, dNTPs by fluorescence based primer extension assay
[21] = target: Human immunodeficiency virus type 1 reverse transcriptase (Human immunodeficiency virus 1) (UniProt Q72547); experiment: Substrate activity at HIV-1 reverse transcriptase assessed as mismatch elongation mediated 20-mer product formation at 50 to 400 uM incubated for 60 mins in presence of 14.4 ng/uL enzyme, FAM labeled primer DNA, template RNA, dNTPs by fluorescence based primer extension assay; conditions: dose 50-400 µM
[22] = target: Human immunodeficiency virus type 1 reverse transcriptase (Human immunodeficiency virus 1) (UniProt Q72547); experiment: Substrate activity at HIV-1 reverse transcriptase assessed as 14-mer product formation incubated for 60 mins in presence of 14.4 ng/uL enzyme, FAM labeled primer DNA, template RNA, dNTPs by fluorescence based primer extension assay; conditions: dose 50-400 µM

| SMILES | EC50 [1] [µM] | EC50 [2] [µM] | CC50 at 120 h [3] [µM] | EC50 [4] [µM] | CC50 at 48 h [5] [µM] | EC50 [6] [µM] | further results |
| --- | --- | --- | --- | --- | --- | --- | --- |
| Cc1cn([C@H]2C[C@H](N=[N+]=[N-])[C@@H](CO)O2)c(=O)[nH]c1=O [ZIDOVUDINE] | 13 | 0.09 | 51 | 0.03 | > 100 | 0.022 |  |
| C[Se][C@H]1[C@H](O)[C@@H](CO)O[C@H]1n1ccc(=O)[nH]c1=O |  |  | 0.006 |  | 0.005 |  |  |
| C[Se][C@H]1[C@H](O)[C@@H](COP(=O)(N[C@@H](C)C(=O)OC(C)C)Oc2ccccc2)O[C@H]1n1ccc(=O)[nH]c1=O (stereo not given in full) |  |  | 0.007 |  | 0.004 |  |  |
| Nc1ncnc2c1ncn2[C@H]1C[C@H](O)[C@@H](COP(=O)(O)OP(=O)(O)OP(=O)(O)O)O1 |  |  |  |  |  |  | Activity [7]: Tde |
| O=c1[nH]cnc2c1ncn2[C@H]1CC[C@@H](CO)O1 [DIDANOSINE] | 25 | 4.6 | > 100 | 4.2 | > 100 | 7.1 |  |
| C[Se][C@H]1[C@H](O)[C@@H](COP(=O)(N[C@@H](C)C(=O)OC(C)C)Oc2ccccc2)O[C@H]1n1cnc2c(N)ncnc21 (stereo not given in full) | 3.8 | 7 | > 100 | 3.7 | > 100 | 6.8 |  |
| C[Se][C@H]1[C@H](O)[C@@H](COP(=O)(N[C@@H](C)C(=O)OC(C)C)Oc2ccccc2)O[C@H]1n1cnc2c(N)nc(N)nc21 (stereo not given in full) |  |  | 5.5 | > 0.8 | 2.8 |  |  |
| C[Se][C@H]1[C@H](O)[C@@H](CO)O[C@H]1n1cnc2c(N)nc(F)nc21 | > 20 | > 20 | 12 | > 20 | 29 | > 20 |  |
| C[Se][C@H]1[C@H](O)[C@@H](COP(=O)(N[C@@H](C)C(=O)OC(C)C)Oc2ccccc2)O[C@H]1n1cnc2c(=O)[nH]c(N)nc21 (stereo not given in full) |  |  | 51 | > 20 | 63 |  |  |
| C[Se][C@H]1[C@H](O)[C@@H](COP(=O)(N[C@@H](C)C(=O)OC(C)C)Oc2ccccc2)O[C@H]1n1cc(C)c(=O)[nH]c1=O (stereo not given in full) |  |  | 0.007 |  | 0.006 |  |  |
| C[Se][C@H]1[C@H](O)[C@@H](CO)O[C@H]1n1cnc2c(N)nc(N)nc21 | > 100 | > 100 | > 100 | > 100 | > 100 | > 100 |  |
| Nc1ccn([C@@H]2CS[C@H](CO)O2)c(=O)n1 [LAMIVUDINE] | 9.8 | 0.85 | > 100 | 0.52 | > 100 | > 100 |  |
| C[Se][C@H]1[C@H](O)[C@@H](COP(=O)(O)OP(=O)(O)OP(=O)(O)O)O[C@H]1n1cnc2c(N)ncnc21 |  |  |  |  |  |  | Activity [8]: Tde; Activity [9]: 94%; Activity [10]: Active; Activity [11]: 77%; Activity [12]: Active; Activity [13]: 70%; Activity [14]: Dose-Dependent Effect; Activity [15]: Active; Activity (Homo sapiens [16]): inactive; Activity [17]: 80%; Activity [18]: Active; Activity [19]: Active; Activity (Homo sapiens [20]): inactive; Activity [21]: Active; Activity [22]: Dose-Dependent Effect |
| C[Se][C@H]1[C@H](O)[C@@H](CO)O[C@H]1n1cc(C)c(=O)[nH]c1=O |  |  | 0.72 |  | 0.25 |  |  |
| CCCC(CC)OC(=O)[C@H](C)N[P@](=O)(OC[C@H]1O[C@@H](n2cnc3c(N)ncnc32)[C@@H]([Se]C)[C@@H]1O)Oc1ccccc1 (stereo not given in full) |  | 5.5 | > 100 | 2.6 | > 100 | 4.4 |  |
| C[Se][C@H]1[C@H](O)[C@@H](CO)O[C@H]1n1cnc2c(N)ncnc21 | > 100 | > 100 | > 100 | > 100 | > 100 | > 100 |  |
| C[Se][C@H]1[C@H](O)[C@@H](CO[P@@](=O)(N[C@@H](C)C(=O)OC(C)C)Oc2ccccc2)O[C@H]1n1cnc2c(N)ncnc21 | 2.8 | 5.8 | > 100 | 2.2 | > 100 | 5.7 |  |
| COc1nc(N)nc2c1ncn2[C@@H]1O[C@H](CO)[C@@H](O)[C@@H]1[Se]C | > 20 | > 20 | > 100 | > 20 | > 100 | > 20 |  |
| COc1nc(N)nc2c1ncn2[C@@H]1O[C@H](COP(=O)(N[C@@H](C)C(=O)OC(C)C)Oc2ccccc2)[C@@H](O)[C@@H]1[Se]C (stereo not given in full) | 61 | 45 | > 100 | 54 | > 100 | 46 |  |
| Nc1ncnc2c1ncn2[C@H]1CC[C@@H](COP(=O)(O)OP(=O)(O)OP(=O)(O)O)O1 |  |  |  |  |  |  | Activity [12]: Active |
| C[Se][C@H]1[C@H](O)[C@@H](CO)O[C@H]1n1cnc2c(=O)[nH]c(N)nc21 | > 100 | > 100 | > 100 | > 100 | > 100 | > 100 |  |
| C[Se][C@H]1[C@H](O)[C@@H](CO[P@@](=O)(N[C@@H](C)C(=O)OC(C)C)Oc2ccccc2)O[C@H]1n1cnc2c(N)nc(F)nc21 |  |  | > 100 | > 20 | 80 |  |  |
